Here are results for 5 molecules from US12252524B2, “GIP/GLP1 co-agonist compounds” (Eli Lilly and Company, priority 2018, dated 2025).

As a reminder, the Ki is the dissociation constant of the complex between target and ligand, obtained from inhibition or displacement. As a reminder, the EC50 is the concentration that produces a half-maximal response.

Numbered stars: 1 amine (or outer) side, 2 acyl side, 3 side chain; on linkers, the order of the positions; unused ones are H or OH. Square brackets hold non-standard residues; d marks the D form. Side chains are listed from the residue outwards. Peptide text beside a SMILES is read from it. * marks the point of attachment. C18 diacid = O=C(O)CCCCCCCCCCCCCCCCC(=O)*; αMePhe(2-F) = C[C@](N)(Cc1ccccc1F)C(=O)O; γGlu = O=C(O)[C@H](CCC(=O)[*:2])N[*:1]; αMeY = C[C@](N)(Cc1ccc(O)cc1)C(=O)O; αMeL = CC(C)C[C@](C)(N)C(=O)O; Orn = NCCC[C@H](N)C(=O)O; AEEA = NCCOCCOCC(=O)O; Aib = CC(C)(N)C(=O)O Some results are limits rather than exact numbers.

In one experiment the target is human GLP-1R (Homo sapiens, UniProt P43220). Briefly: [125I]-GLP-1 binding (SPA), human GLP-1 receptor. The arrangement: expressed in transfected cells; crude membranes. Conditions: read-out: hGLP1R Ki, (nM) (SEM, n). The essentials:
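Frozen cell pellets are lysed on ice in hypotonic Tris buffer, pH 7.5, homogenized, and centrifuged to a membrane pellet resuspended at about 1 to 3 mg/mL. Binding is then measured in HEPES-based buffer at pH 7.4, and curves are fitted to give IC50 and Ki.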

Experiment [1] has as its target T1, gastric inhibitory peptide receptor (GIPR) (Homo sapiens, UniProt P48546).
T1 sequence (P48546 22-466): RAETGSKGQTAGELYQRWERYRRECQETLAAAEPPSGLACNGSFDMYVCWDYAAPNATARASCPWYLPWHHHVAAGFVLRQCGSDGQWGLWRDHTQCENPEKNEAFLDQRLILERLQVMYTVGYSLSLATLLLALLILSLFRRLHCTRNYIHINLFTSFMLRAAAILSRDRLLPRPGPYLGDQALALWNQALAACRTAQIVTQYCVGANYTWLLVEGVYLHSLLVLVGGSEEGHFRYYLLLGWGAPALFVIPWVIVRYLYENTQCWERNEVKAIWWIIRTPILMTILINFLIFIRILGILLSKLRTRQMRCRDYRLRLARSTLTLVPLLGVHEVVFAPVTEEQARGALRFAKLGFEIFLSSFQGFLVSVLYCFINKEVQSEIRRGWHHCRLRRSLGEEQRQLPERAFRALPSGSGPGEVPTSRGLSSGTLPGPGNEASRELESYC
Briefly: cAMP pharmacological functional assay in presence of casein, hGIPR. Format: cell-based. The conditions noted are these: HEK293 cells expressing hGIPR, 0.1% Casein, geometric mean; read-out: hGIPR cAMP Rel EC50 nM (SEM, n).

Experiment [2] concerns the target human GLP-1 receptor (GLP-1R) (Homo sapiens, UniProt P43220). Briefly: cAMP pharmacological functional assay in presence of casein, hGLP-1R. Format: cell-based. The conditions noted are these: HEK293 cells expressing hGLP-1R, 0.1% Casein, geometric mean; read-out: hGLP1R cAMP Rel EC50 nM (SEM, n).
The next experiment concerns the target T2, human GIP receptor (Homo sapiens, UniProt P48546).
T2 construct: expressed in transfected cells; crude membranes
T2 sequence (P48546 22-466): T1 sequence (P48546 22-466)
Put plainly: [125I]-GIP binding (SPA), human GIP receptor. Conditions: read-out: hGIPR Ki, nM (SEM, n).

The target of another experiment is T3, human Gcg receptor (Homo sapiens, UniProt P47871).
T3 construct: expressed in transfected cells; crude membranes
Briefly: [125I]-Glucagon binding (SPA), human Gcg receptor. The conditions noted are these: read-out: hGLcgR Ki, nM (SEM, n). Put shortly: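 Crude membranes from cells expressing the receptor, prepared by hypotonic lysis in 50 mM Tris HCl pH 7.5 with protease inhibitors, homogenization and differential centrifugation, were used in a WGA-bead SPA. Binding buffer: 25 mM HEPES pH 7.4, 2.5 mM CaCl2, 1 mM MgCl2, bacitracin, Tween-20.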

human GLP-1R, sequence (P43220 24-463): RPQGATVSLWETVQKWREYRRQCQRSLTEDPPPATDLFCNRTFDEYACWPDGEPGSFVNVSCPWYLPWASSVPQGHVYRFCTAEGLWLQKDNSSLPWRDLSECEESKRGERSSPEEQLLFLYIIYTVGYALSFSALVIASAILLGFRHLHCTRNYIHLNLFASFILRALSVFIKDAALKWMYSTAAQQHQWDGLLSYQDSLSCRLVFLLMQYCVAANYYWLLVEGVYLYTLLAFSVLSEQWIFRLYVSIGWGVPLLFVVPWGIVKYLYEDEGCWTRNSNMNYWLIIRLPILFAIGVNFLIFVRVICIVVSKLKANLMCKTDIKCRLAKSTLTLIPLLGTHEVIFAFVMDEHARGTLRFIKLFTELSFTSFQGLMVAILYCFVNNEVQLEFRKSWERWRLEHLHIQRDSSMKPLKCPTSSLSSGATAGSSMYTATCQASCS
human GLP-1 receptor (GLP-1R), sequence (P43220 24-463): as above
T3 sequence (P47871 26-477): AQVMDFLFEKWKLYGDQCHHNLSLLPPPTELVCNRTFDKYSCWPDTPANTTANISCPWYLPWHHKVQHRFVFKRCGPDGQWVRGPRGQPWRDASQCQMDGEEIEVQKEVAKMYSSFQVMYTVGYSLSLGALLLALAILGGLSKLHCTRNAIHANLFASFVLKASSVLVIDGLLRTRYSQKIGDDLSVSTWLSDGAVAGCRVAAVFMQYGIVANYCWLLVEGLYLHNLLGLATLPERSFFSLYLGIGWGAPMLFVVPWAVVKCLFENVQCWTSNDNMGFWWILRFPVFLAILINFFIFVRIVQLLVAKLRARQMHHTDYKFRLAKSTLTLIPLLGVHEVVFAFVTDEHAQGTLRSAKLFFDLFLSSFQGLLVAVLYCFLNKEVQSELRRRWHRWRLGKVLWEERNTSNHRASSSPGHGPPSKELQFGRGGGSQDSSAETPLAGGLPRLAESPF

In the case of `CC[C@H](C)[C@H](NC(=O)[C@H](CC(C)C)NC(=O)[C@](C)(Cc1ccc(O)cc1)NC(=O)[C@@H](CCC(=O)O)NC(=O)[C@@H](NC(=O)[C@H](Cc1ccccc1)NC(=O)[C@@H](NC(=O)C(C)(C)NC(=O)[C@H](CCC(N)=O)NC(=O)[C@H](C)NC(=O)[C@H](CCCCNC(=O)COCCOCCNC(=O)COCCOCCNC(=O)CC[C@H](NC(=O)CCCCCCCCCCCCCCCCC(=O)O)C(=O)O)NC(=O)[C@H](CCCN)NC(=O)[C@H](CC(=O)O)NC(=O)[C@H](CC(C)C)NC(=O)[C@](C)(CC(C)C)NC(=O)[C@@H](NC(=O)[C@H](CO)NC(=O)[C@@H](NC(=O)[C@H](CC(=O)O)NC(=O)[C@H](CO)NC(=O)[C@@H](NC(=O)[C@](C)(Cc1ccccc1F)NC(=O)[C@@H](NC(=O)CNC(=O)[C@H](CCC(=O)O)NC(=O)C(C)(C)NC(=O)[C@@H](N)Cc1ccc(O)cc1)[C@@H](C)O)[C@@H](C)O)C(C)C)[C@@H](C)CC)[C@@H](C)O)[C@@H](C)CC)C(=O)N[C@@H](CCC(=O)O)C(=O)NCC(=O)NCC(=O)N1CCC[C@H]1C(=O)N[C@@H](CO)C(=O)N[C@@H](CO)C(=O)NCC(=O)N[C@@H](C)C(=O)N1CCC[C@H]1C(=O)N1CCC[C@H]1C(=O)N1CCC[C@H]1C(=O)N[C@@H](CO)C(N)=O` [Example 241] (H-Y[Aib]EGT[αMePhe(2-F)]TSDVSI[αMeL]LD[Orn]K([AEEA-AEEA-γGlu-C18 diacid])AQ[Aib]TFI[dE][αMeY]LIEGGPSSGAPPPS-NH2; N-terminus assumed), the Ki on human GLP-1R turned out to be 0.799 nM; at human GIP receptor, 0.042 nM; on human Gcg receptor, 167 nM. The EC50 in experiment [1] was 0.0257 nM; in experiment [2], 0.0175 nM.
On the same counts, the results for `CC[C@H](C)[C@H](NC(=O)[C@H](CC(C)C)NC(=O)[C@](C)(Cc1ccc(O)cc1)NC(=O)[C@@H](CCC(=O)O)NC(=O)[C@@H](NC(=O)[C@H](Cc1ccccc1)NC(=O)[C@H](C)NC(=O)C(C)(C)NC(=O)[C@H](CCC(N)=O)NC(=O)[C@H](C)NC(=O)[C@H](CCCCNC(=O)COCCOCCNC(=O)COCCOCCNC(=O)CC[C@H](NC(=O)CCCCCCCCCCCCCCCCC(=O)O)C(=O)O)NC(=O)[C@H](CCCN)NC(=O)[C@H](CC(=O)O)NC(=O)[C@H](CC(C)C)NC(=O)[C@](C)(CC(C)C)NC(=O)[C@@H](NC(=O)[C@H](CO)NC(=O)[C@@H](NC(=O)[C@H](CC(=O)O)NC(=O)[C@H](CO)NC(=O)[C@@H](NC(=O)[C@](C)(Cc1ccccc1F)NC(=O)[C@@H](NC(=O)CNC(=O)[C@H](CCC(=O)O)NC(=O)C(C)(C)NC(=O)[C@@H](N)Cc1ccc(O)cc1)[C@@H](C)O)[C@@H](C)O)C(C)C)[C@@H](C)CC)[C@@H](C)CC)C(=O)N[C@@H](CCC(=O)O)C(=O)NCC(=O)NCC(=O)N1CCC[C@H]1C(=O)N[C@@H](CO)C(=O)N[C@@H](CO)C(=O)NCC(=O)N[C@@H](C)C(=O)N1CCC[C@H]1C(=O)N1CCC[C@H]1C(=O)N1CCC[C@H]1C(=O)N[C@@H](CO)C(N)=O` [Example 242] (H-Y[Aib]EGT[αMePhe(2-F)]TSDVSI[αMeL]LD[Orn]K([AEEA-AEEA-γGlu-C18 diacid])AQ[Aib]AFI[dE][αMeY]LIEGGPSSGAPPPS-NH2) are 0.853 nM, 0.0604 nM, 95.9 nM, 0.0333 nM and 0.0164 nM.
Regarding `CC[C@H](C)[C@H](NC(=O)[C@H](CC(C)C)NC(=O)[C@](C)(Cc1ccc(O)cc1)NC(=O)[C@@H](CCC(=O)O)NC(=O)[C@@H](NC(=O)[C@H](Cc1ccccc1)NC(=O)[C@@H](NC(=O)C(C)(C)NC(=O)[C@H](CCC(N)=O)NC(=O)[C@H](C)NC(=O)[C@H](CCCCNC(=O)COCCOCCNC(=O)COCCOCCNC(=O)CC[C@H](NC(=O)CCCCCCCCCCCCCCCCC(=O)O)C(=O)O)NC(=O)[C@H](CCCN)NC(=O)[C@H](CC(=O)O)NC(=O)[C@H](CC(C)C)NC(=O)[C@](C)(CC(C)C)NC(=O)[C@@H](NC(=O)[C@H](CO)NC(=O)[C@H](CC(C)C)NC(=O)[C@H](CC(=O)O)NC(=O)[C@H](CO)NC(=O)[C@@H](NC(=O)[C@](C)(Cc1ccccc1F)NC(=O)[C@@H](NC(=O)CNC(=O)[C@H](CCC(=O)O)NC(=O)C(C)(C)NC(=O)[C@@H](N)Cc1ccc(O)cc1)[C@@H](C)O)[C@@H](C)O)[C@@H](C)CC)[C@@H](C)O)[C@@H](C)CC)C(=O)N[C@@H](CCC(=O)O)C(=O)NCC(=O)NCC(=O)N1CCC[C@H]1C(=O)N[C@@H](CO)C(=O)N[C@@H](CO)C(=O)NCC(=O)N[C@@H](C)C(=O)N1CCC[C@H]1C(=O)N1CCC[C@H]1C(=O)N1CCC[C@H]1C(=O)N[C@@H](CO)C(N)=O` [Example 243] (H-Y[Aib]EGT[αMePhe(2-F)]TSDLSI[αMeL]LD[Orn]K([AEEA-AEEA-γGlu-C18 diacid])AQ[Aib]TFI[dE][αMeY]LIEGGPSSGAPPPS-NH2), the Ki at human GLP-1R is 0.67 nM; on human GIP receptor, 0.0325 nM; on human Gcg receptor it was 145 nM. For the same molecule, the EC50 in experiment [1] amounted to 0.0214 nM; in experiment [2], 0.0265 nM.
For the molecule `CC[C@H](C)[C@H](NC(=O)[C@H](CC(C)C)NC(=O)[C@](C)(Cc1ccc(O)cc1)NC(=O)[C@@H](CCC(=O)O)NC(=O)[C@@H](NC(=O)[C@H](Cc1ccccc1)NC(=O)[C@H](C)NC(=O)C(C)(C)NC(=O)[C@H](CCC(N)=O)NC(=O)[C@H](C)NC(=O)[C@H](CCCCNC(=O)COCCOCCNC(=O)COCCOCCNC(=O)CC[C@H](NC(=O)CCCCCCCCCCCCCCCCC(=O)O)C(=O)O)NC(=O)[C@H](CCCN)NC(=O)[C@H](CC(=O)O)NC(=O)[C@H](CC(C)C)NC(=O)[C@](C)(CC(C)C)NC(=O)[C@@H](NC(=O)[C@H](CO)NC(=O)[C@H](CC(C)C)NC(=O)[C@H](CC(=O)O)NC(=O)[C@H](CO)NC(=O)[C@@H](NC(=O)[C@](C)(Cc1ccccc1F)NC(=O)[C@@H](NC(=O)CNC(=O)[C@H](CCC(=O)O)NC(=O)C(C)(C)NC(=O)[C@@H](N)Cc1ccc(O)cc1)[C@@H](C)O)[C@@H](C)O)[C@@H](C)CC)[C@@H](C)CC)C(=O)N[C@@H](CCC(=O)O)C(=O)NCC(=O)NCC(=O)N1CCC[C@H]1C(=O)N[C@@H](CO)C(=O)N[C@@H](CO)C(=O)NCC(=O)N[C@@H](C)C(=O)N1CCC[C@H]1C(=O)N1CCC[C@H]1C(=O)N1CCC[C@H]1C(=O)N[C@@H](CO)C(N)=O` [Example 244] (H-Y[Aib]EGT[αMePhe(2-F)]TSDLSI[αMeL]LD[Orn]K([AEEA-AEEA-γGlu-C18 diacid])AQ[Aib]AFI[dE][αMeY]LIEGGPSSGAPPPS-NH2), the Ki at human GLP-1R is 0.82 nM; on human GIP receptor, 0.0308 nM; on human Gcg receptor, 87.8 nM. In addition, the EC50 was determined as 0.0225 nM in experiment [1] and 0.0252 nM in experiment [2].
The corresponding values for `CC[C@H](C)[C@H](NC(=O)[C@H](CC(C)C)NC(=O)[C@](C)(Cc1ccc(O)cc1)NC(=O)[C@@H](CCC(=O)O)NC(=O)[C@@H](NC(=O)[C@H](Cc1ccccc1)NC(=O)[C@H](C)NC(=O)C(C)(C)NC(=O)[C@H](CCC(N)=O)NC(=O)[C@H](C)NC(=O)[C@H](CCCCNC(=O)COCCOCCNC(=O)COCCOCCNC(=O)CC[C@H](NC(=O)CCCCCCCCCCCCCCCCC(=O)O)C(=O)O)NC(=O)[C@H](CCCN)NC(=O)[C@H](CC(=O)O)NC(=O)[C@H](CC(C)C)NC(=O)[C@](C)(CC(C)C)NC(=O)[C@@H](NC(=O)[C@H](CO)NC(=O)[C@H](C)NC(=O)[C@H](CC(=O)O)NC(=O)[C@H](CO)NC(=O)[C@@H](NC(=O)[C@](C)(Cc1ccccc1F)NC(=O)[C@@H](NC(=O)CNC(=O)[C@H](CCC(=O)O)NC(=O)C(C)(C)NC(=O)[C@@H](N)Cc1ccc(O)cc1)[C@@H](C)O)[C@@H](C)O)[C@@H](C)CC)[C@@H](C)CC)C(=O)N[C@@H](CCC(=O)O)C(=O)NCC(=O)NCC(=O)N1CCC[C@H]1C(=O)N[C@@H](CO)C(=O)N[C@@H](CO)C(=O)NCC(=O)N[C@@H](C)C(=O)N1CCC[C@H]1C(=O)N1CCC[C@H]1C(=O)N1CCC[C@H]1C(=O)N[C@@H](CO)C(N)=O` [Example 246] (H-Y[Aib]EGT[αMePhe(2-F)]TSDASI[αMeL]LD[Orn]K([AEEA-AEEA-γGlu-C18 diacid])AQ[Aib]AFI[dE][αMeY]LIEGGPSSGAPPPS-NH2) are 0.812 nM, 0.0509 nM, above 1010 nM, 0.0258 nM and 0.0144 nM.
